Measurements reported in patent publication US20200261440A1, “ZINC IONOPHORES AND USES THEREOF” (THE UNIVERSITY OF QUEENSLAND, priority 2017, published 2020).
In brackets after ≈: the same amount, converted by molar mass. Read-outs that look alike come from different tables or passages of the source.

Legend:
Assay in all cases: MIC by broth microdilution (CLSI)
[1] = test system: Vancomycin-resistant Enterococci (VRE) clinical isolate RBWH1; format: cell-based, Enterococcus; conditions: Enterococcus, VRE, read-out: MIC
Experimental: J. Path. Bact. […] Proc. Soc.
MIC assays were carried out in biological triplicates.
M100 Performance Standards for Antimicrobial Susceptibility Testing, 27th Edition.

[2] = test system: Klebsiella pneumoniae strain MS6771; format: cell-based; conditions: Klebsiella pneumoniae, read-out: MIC
[3] = test system: Streptococcus pneumoniae 23F; format: cell-based; conditions: Streptococcus pneumoniae, 23F, read-out: MIC
[4] = test system: Methicillin-resistant Staphylococcus aureus (MRSA) strain USA300; conditions: for MIC: Staphylococcus aureus
[5] = MS6771, K. pneumoniae, RA-HQ-12: 0 μM, Zn: 0 μM
[6] = MS6771, K. pneumoniae, RA-HQ-12: 16 μM, Zn: 64 μM
[7] = MS6771, K. pneumoniae, RA-HQ-12: 16 μM
[8] = MS6771, K. pneumoniae, Zn: 64 μM
[9] = MS6771, Klebsiella pneumoniae, CQ: 0 μM, Zinc: 0 μM
[10] = MS6771, Klebsiella pneumoniae, CQ: 64 μM, Zinc: 256 μM
[11] = MS6771, Klebsiella pneumoniae, CQ: 64 μM
[12] = MS6771, Klebsiella pneumoniae, PBT2: 0 μM, Zinc: 0 μM
[13] = MS6771, Klebsiella pneumoniae, PBT2: 64 μM, Zinc: 256 μM
[14] = MS6771, Klebsiella pneumoniae, PBT2: 64 μM
[15] = MS6771, Klebsiella pneumoniae, Zinc: 256 μM (CQ panel)
[16] = MS6771, Klebsiella pneumoniae, Zinc: 256 μM (PBT2 panel)
[17] = MRSA|USA300, MRSA, RA-HQ-12: 0 μM, Zn: 0 μM, oxacillin with 2% NaCl

Compound	MIC [2, 5]	MIC [2, 6]	MIC [2, 7]	MIC [2, 8]	MIC [2, 9]	MIC [2, 10]	MIC [2, 11]	MIC [2, 12]	MIC [2, 13]	MIC [2, 14]	MIC [2, 15]	MIC [2, 16]	MIC ([3]; PBT2: 0 μM, Zinc: 0 μM)	MIC ([3]; PBT2: 8 μM, Zinc: 32 μM)	MIC ([3]; PBT2: 8 μM)	MIC ([3]; Zinc: 32 μM)	MIC [4, 17]	other results
CC1(C)S[C@@H]2[C@H](NC(=O)[C@H](N)c3ccccc3)C(=O)N2[C@H]1C(=O)O [Ampicillin, ampicillin]	> 128 µg/mL	> 128 µg/mL	> 128 µg/mL	> 128 µg/mL	> 128 µg/mL	> 128 µg/mL	> 128 µg/mL	> 128 µg/mL	> 128 µg/mL	> 128 µg/mL	> 128 µg/mL	> 128 µg/mL	8 µg/mL (≈ 22.9 µM)	1 µg/mL (≈ 2.86 µM)	8 µg/mL (≈ 22.9 µM)	8 µg/mL (≈ 22.9 µM)	> 128 µg/mL	MIC ([1]; RA-HQ-12: 3.5 μM, Zn: […]): > 128 µg/mL; MIC ([1]; RA-HQ-12: 3.5 μM): > 128 µg/mL; MIC ([1]; Zn: […] (RA-HQ-12 panel)): > 128 µg/mL; MIC ([1]; RA-HQ-12: 0 μM, Zn: 0 μM): > 128 µg/mL; antibiotic sensitivity of resistant strain ([4]; MRSA USA300, addition of sub-inhibitory PBT2+zinc(II) ions): became sensitive; MIC ([4]; MRSA USA300, CQ: 0 μM, Zinc: 0 μM): > 128 µg/mL; MIC ([4]; MRSA USA300, CQ: 1 μM): > 128 µg/mL; MIC ([4]; MRSA USA300, CQ: 1 μM, Zinc: 32 μM): 1 µg/mL (≈ 2.86 µM); MIC ([4]; MRSA USA300, PBT2: 0 μM, Zinc: 0 μM): > 128 µg/mL; MIC ([4]; MRSA USA300, PBT2: 2 μM): > 128 µg/mL; MIC ([4]; MRSA USA300, PBT2: 2 μM, Zinc: 50 μM): 2 µg/mL (≈ 5.72 µM); MIC ([4]; MRSA USA300, Zinc: 32 μM): > 128 µg/mL; MIC ([4]; MRSA USA300, Zinc: 50 μM): > 128 µg/mL; MIC ([4]; MRSA|USA300, MRSA, RA-HQ-12: 3.5 μM, Zn: […], oxacillin with 2% NaCl): > 128 µg/mL; MIC ([4]; MRSA|USA300, MRSA, RA-HQ-12: 3.5 μM, oxacillin with 2% NaCl): > 128 µg/mL
CN(C)[C@@H]1C(O)=C(C(N)=O)C(=O)[C@@]2(O)C(O)=C3C(=O)c4c(O)cccc4[C@@](C)(O)[C@H]3C[C@@H]12 [Tetracycline, tetracycline]	32 µg/mL (≈ 72 µM)	32 µg/mL (≈ 72 µM)	32 µg/mL (≈ 72 µM)	32 µg/mL (≈ 72 µM)	32 to 64 µg/mL (≈ 72 to 144 µM)	4 to 8 µg/mL (≈ 9 to 18 µM)	16 µg/mL (≈ 36 µM)	16 to 32 µg/mL (≈ 36 to 72 µM)	4 µg/mL (≈ 9 µM)	8 µg/mL (≈ 18 µM)	8 µg/mL (≈ 18 µM)	8 µg/mL (≈ 18 µM)	32 µg/mL (≈ 72 µM)	1 µg/mL (≈ 2.25 µM)	32 µg/mL (≈ 72 µM)	32 µg/mL (≈ 72 µM)	0.5 µg/mL (≈ 1.13 µM)	MIC ([1]; VRE RBWH1, CQ: 2.5 μM, Zinc: 32 μM): 1 to 2 µg/mL (≈ 2.25 to 4.5 µM)
